{"source": "the NIST ThermoML archive (doi:10.1021/je2013878)", "note": "Numbers after ± are expanded uncertainties.", "data": [{"assay": "activity coefficient (dimensionless); of the first substance listed, at infinite dilution; xn = mol fraction of the nth substance listed", "details": "313.15 K; 101 kPa; Liquid; Chromatography; x1 = 0", "values": [{"compound": "CCOC(C)=O", "note": "[ethyl acetate] + O", "activity coefficient": "71 ± 7"}, {"compound": "C=CC(O)CCCCC", "note": "(configuration not stated) [1-octen-3-ol] + O", "activity coefficient": "2160 ± 230"}, {"compound": "CCC(=O)C(C)=O", "note": "[2,3-pentanedione] + O", "activity coefficient": "160 ± 17"}, {"compound": "CCCCCC=O", "note": "[hexanal] + O", "activity coefficient": "601 ± 63"}, {"compound": "C=CC(O)CC", "note": "(configuration not stated) [1-penten-3-ol] + O", "activity coefficient": "49 ± 5"}, {"compound": "O=Cc1ccccc1", "note": "[benzaldehyde] + O", "activity coefficient": "570 ± 60"}, {"compound": "CC(C)CC=O", "note": "[3-methylbutanal] + O", "activity coefficient": "179 ± 19"}]}]}
